Patent US11084790B2, “Insoluble complex or solvate thereof, pharmaceutical composition and use thereof” (Fruithy Holdings Limited, priority 2017, dated 2021)

Experiments:
[1] = Test on the solubility in a simulated body fluid; type: physicochemical
Description: Test on the Solubility in a Simulated Body Fluid
The concentration of the drug dissolved in the PBS buffered solution was determined with an HPLC-a method.

[2] = Test on the solubility in media at different pH; type: physicochemical
Description: Test on the Solubility in Media at Different pH
About 200 mg of solid powders of Preparation Example 10 and Preparation Example 15 were added in a 500 mL phosphate buffered solution at different pH values (50 mmol/L, pH 5.5, pH 6.5, pH 7.4, and pH 8.0) respectively, placed into a dissolution tester, kept at a constant temperature of 37° C., and paddle stirred at 50 rpm for 72 hours. Appropriate amounts of the suspension were taken out at 15 min, 30 min, 45 min, 1 h, 2 h, 4 h, 6 h, 8 h, 24 h, 32 h, 48 h, and 72 h respectively, and centrifuged immediately (15000 rpm, 5 min). The supernatant was diluted with methanol by a factor of two. The concentration of the drug dissolved in the PB buffer solution was determined with an HPLC-b method.

[3] = 0.01 M PBS pH 7.4, 37° C., 5 min
[4] = 0.01 M PBS pH 7.4, 37° C., 15 min
[5] = 0.01 M PBS pH 7.4, 37° C., 30 min
[6] = 0.01 M PBS pH 7.4, 37° C., 24 h
[7] = phosphate buffer pH 5.5, 37° C., 0.25 h
[8] = phosphate buffer pH 5.5, 37° C., 0.5 h
[9] = phosphate buffer pH 5.5, 37° C., 0.75 h
[10] = phosphate buffer pH 5.5, 37° C., 1 h
[11] = phosphate buffer pH 5.5, 37° C., 2 h
[12] = phosphate buffer pH 5.5, 37° C., 4 h
[13] = phosphate buffer pH 5.5, 37° C., 6 h
[14] = phosphate buffer pH 5.5, 37° C., 8 h
[15] = phosphate buffer pH 5.5, 37° C., 24 h
[16] = phosphate buffer pH 5.5, 37° C., 32 h
[17] = phosphate buffer pH 5.5, 37° C., 48 h
[18] = phosphate buffer pH 5.5, 37° C., 72 h
[19] = phosphate buffer pH 6.5, 37° C., 0.25 h
[20] = phosphate buffer pH 6.5, 37° C., 0.5 h
[21] = phosphate buffer pH 6.5, 37° C., 0.75 h
[22] = phosphate buffer pH 6.5, 37° C., 1 h
[23] = phosphate buffer pH 6.5, 37° C., 2 h
[24] = phosphate buffer pH 6.5, 37° C., 4 h
[25] = phosphate buffer pH 6.5, 37° C., 6 h
[26] = phosphate buffer pH 6.5, 37° C., 8 h
[27] = phosphate buffer pH 6.5, 37° C., 24 h
[28] = phosphate buffer pH 6.5, 37° C., 32 h
[29] = phosphate buffer pH 6.5, 37° C., 48 h
[30] = phosphate buffer pH 6.5, 37° C., 72 h
[31] = phosphate buffer pH 7.4, 37° C., 0.25 h
[32] = phosphate buffer pH 7.4, 37° C., 0.5 h
[33] = phosphate buffer pH 7.4, 37° C., 0.75 h
[34] = phosphate buffer pH 7.4, 37° C., 1 h
[35] = phosphate buffer pH 7.4, 37° C., 2 h
[36] = phosphate buffer pH 7.4, 37° C., 4 h
[37] = phosphate buffer pH 7.4, 37° C., 6 h
[38] = phosphate buffer pH 7.4, 37° C., 8 h
[39] = phosphate buffer pH 7.4, 37° C., 24 h
[40] = phosphate buffer pH 7.4, 37° C., 32 h
[41] = phosphate buffer pH 7.4, 37° C., 48 h
[42] = phosphate buffer pH 7.4, 37° C., 72 h
[43] = phosphate buffer pH 8.0, 37° C., 0.25 h
[44] = phosphate buffer pH 8.0, 37° C., 0.5 h
[45] = phosphate buffer pH 8.0, 37° C., 0.75 h
[46] = phosphate buffer pH 8.0, 37° C., 1 h
[47] = phosphate buffer pH 8.0, 37° C., 2 h
[48] = phosphate buffer pH 8.0, 37° C., 4 h
[49] = phosphate buffer pH 8.0, 37° C., 6 h
[50] = phosphate buffer pH 8.0, 37° C., 8 h
[51] = phosphate buffer pH 8.0, 37° C., 24 h
[52] = phosphate buffer pH 8.0, 37° C., 32 h
[53] = phosphate buffer pH 8.0, 37° C., 48 h
[54] = phosphate buffer pH 8.0, 37° C., 72 h

## CCCCN1CCCCC1C(=O)Nc1c(C)cccc1C.CCCCN1CCCCC1C(=O)Nc1c(C)cccc1C.O=C(O)c1cc2ccccc2c(Cc2c(O)c(C(=O)O)cc3ccccc23)c1O [Preparation Example 15, bis(bupivacaine) pamoate]
[1]; [3]
  Compound concentration: Bupivacaine: 112.8 µM
  Compound concentration: Pamoic acid: 57.2 µM
[1]; [4]
  Compound concentration: Bupivacaine: 153.8 µM
  Compound concentration: Pamoic acid: 77.9 µM
[1]; [5]
  Compound concentration: Bupivacaine: 239.4 µM
  Compound concentration: Pamoic acid: 120.2 µM
[1]; 0.01 M PBS pH 7.4, 37° C., 1 h
  Compound concentration: Bupivacaine: 257.4 µM
  Compound concentration: Pamoic acid: 127.8 µM
[1]; 0.01 M PBS pH 7.4, 37° C., 2 h
  Compound concentration: Bupivacaine: 287.5 µM
  Compound concentration: Pamoic acid: 141.5 µM
[1]; 0.01 M PBS pH 7.4, 37° C., 6 h
  Compound concentration: Bupivacaine: 290.1 µM
  Compound concentration: Pamoic acid: 146.7 µM
[1]; [6]
  Compound concentration: Bupivacaine: 290.3 µM
  Compound concentration: Pamoic acid: 143 µM
[1]; simulated body fluid
  stability of the suspension (ratio between acid radical and basic group): stable
[1]; simulated body fluid, 0.01 M PBS pH 7.4, 37° C.
  solubility: about 0.3 mM
[2]; media at pH 5.5, pH 6.5, pH 7.4 and pH 8.0, remained for at least 72 hours
  molar ratio of the solubility (bupivacaine to pamoic acid): around 2.0
[2]; [7]
  Molar concentration of Bupivacaine: 0.050 mmol/L
  Molar concentration of Pamoic acid: 0.020 mmol/L
[2]; [8]
  Molar concentration of Bupivacaine: 0.070 mmol/L
  Molar concentration of Pamoic acid: 0.034 mmol/L
[2]; [9]
  Molar concentration of Bupivacaine: 0.140 mmol/L
  Molar concentration of Pamoic acid: 0.070 mmol/L
[2]; [10]
  Molar concentration of Bupivacaine: 0.196 mmol/L
  Molar concentration of Pamoic acid: 0.092 mmol/L
[2]; [11]
  Molar concentration of Bupivacaine: 0.198 mmol/L
  Molar concentration of Pamoic acid: 0.094 mmol/L
[2]; [12]
  Molar concentration of Bupivacaine: 0.198 mmol/L
  Molar concentration of Pamoic acid: 0.092 mmol/L
[2]; [13]
  Molar concentration of Bupivacaine: 0.198 mmol/L
  Molar concentration of Pamoic acid: 0.094 mmol/L
[2]; [14]
  Molar concentration of Bupivacaine: 0.198 mmol/L
  Molar concentration of Pamoic acid: 0.092 mmol/L
[2]; [15]
  Molar concentration of Bupivacaine: 0.192 mmol/L
  Molar concentration of Pamoic acid: 0.088 mmol/L
[2]; [16]
  Molar concentration of Bupivacaine: 0.196 mmol/L
  Molar concentration of Pamoic acid: 0.092 mmol/L
[2]; [17]
  Molar concentration of Bupivacaine: 0.198 mmol/L
  Molar concentration of Pamoic acid: 0.092 mmol/L
[2]; [18]
  Molar concentration of Bupivacaine: 0.190 mmol/L
  Molar concentration of Pamoic acid: 0.084 mmol/L
[2]; [19]
  Molar concentration of Bupivacaine: 0.046 mmol/L
  Molar concentration of Pamoic acid: 0.024 mmol/L
[2]; [20]
  Molar concentration of Bupivacaine: 0.076 mmol/L
  Molar concentration of Pamoic acid: 0.038 mmol/L
[2]; [21]
  Molar concentration of Bupivacaine: 0.138 mmol/L
  Molar concentration of Pamoic acid: 0.076 mmol/L
[2]; [22]
  Molar concentration of Bupivacaine: 0.202 mmol/L
  Molar concentration of Pamoic acid: 0.106 mmol/L
[2]; [23]
  Molar concentration of Bupivacaine: 0.204 mmol/L
  Molar concentration of Pamoic acid: 0.108 mmol/L
[2]; [24]
  Molar concentration of Bupivacaine: 0.202 mmol/L
  Molar concentration of Pamoic acid: 0.106 mmol/L
[2]; [25]
  Molar concentration of Bupivacaine: 0.198 mmol/L
  Molar concentration of Pamoic acid: 0.104 mmol/L
[2]; [26]
  Molar concentration of Bupivacaine: 0.198 mmol/L
  Molar concentration of Pamoic acid: 0.106 mmol/L
[2]; [27]
  Molar concentration of Bupivacaine: 0.198 mmol/L
  Molar concentration of Pamoic acid: 0.106 mmol/L
[2]; [28]
  Molar concentration of Bupivacaine: 0.202 mmol/L
  Molar concentration of Pamoic acid: 0.106 mmol/L
[2]; [29]
  Molar concentration of Bupivacaine: 0.200 mmol/L
  Molar concentration of Pamoic acid: 0.106 mmol/L
[2]; [30]
  Molar concentration of Bupivacaine: 0.196 mmol/L
  Molar concentration of Pamoic acid: 0.100 mmol/L
[2]; [31]
  Molar concentration of Bupivacaine: 0.038 mmol/L
  Molar concentration of Pamoic acid: 0.020 mmol/L
[2]; [32]
  Molar concentration of Bupivacaine: 0.080 mmol/L
  Molar concentration of Pamoic acid: 0.042 mmol/L
[2]; [33]
  Molar concentration of Bupivacaine: 0.192 mmol/L
  Molar concentration of Pamoic acid: 0.100 mmol/L
[2]; [34]
  Molar concentration of Bupivacaine: 0.240 mmol/L
  Molar concentration of Pamoic acid: 0.134 mmol/L
[2]; [35]
  Molar concentration of Bupivacaine: 0.246 mmol/L
  Molar concentration of Pamoic acid: 0.134 mmol/L
[2]; [36]
  Molar concentration of Bupivacaine: 0.242 mmol/L
  Molar concentration of Pamoic acid: 0.134 mmol/L
[2]; [37]
  Molar concentration of Bupivacaine: 0.234 mmol/L
  Molar concentration of Pamoic acid: 0.13 mmol/L
[2]; [38]
  Molar concentration of Bupivacaine: 0.232 mmol/L
  Molar concentration of Pamoic acid: 0.128 mmol/L
[2]; [39]
  Molar concentration of Bupivacaine: 0.226 mmol/L
  Molar concentration of Pamoic acid: 0.124 mmol/L
[2]; [40]
  Molar concentration of Bupivacaine: 0.226 mmol/L
  Molar concentration of Pamoic acid: 0.124 mmol/L
[2]; [41]
  Molar concentration of Bupivacaine: 0.230 mmol/L
  Molar concentration of Pamoic acid: 0.126 mmol/L
[2]; [42]
  Molar concentration of Bupivacaine: 0.224 mmol/L
  Molar concentration of Pamoic acid: 0.120 mmol/L
[2]; [43]
  Molar concentration of Bupivacaine: 0.036 mmol/L
  Molar concentration of Pamoic acid: 0.020 mmol/L
[2]; [44]
  Molar concentration of Bupivacaine: 0.092 mmol/L
  Molar concentration of Pamoic acid: 0.050 mmol/L
[2]; [45]
  Molar concentration of Bupivacaine: 0.252 mmol/L
  Molar concentration of Pamoic acid: 0.138 mmol/L
[2]; [46]
  Molar concentration of Bupivacaine: 0.328 mmol/L
  Molar concentration of Pamoic acid: 0.182 mmol/L
[2]; [47]
  Molar concentration of Bupivacaine: 0.336 mmol/L
  Molar concentration of Pamoic acid: 0.186 mmol/L
[2]; [48]
  Molar concentration of Bupivacaine: 0.338 mmol/L
  Molar concentration of Pamoic acid: 0.192 mmol/L
[2]; [49]
  Molar concentration of Bupivacaine: 0.338 mmol/L
  Molar concentration of Pamoic acid: 0.190 mmol/L
[2]; [50]
  Molar concentration of Bupivacaine: 0.334 mmol/L
  Molar concentration of Pamoic acid: 0.186 mmol/L
[2]; [51]
  Molar concentration of Bupivacaine: 0.326 mmol/L
  Molar concentration of Pamoic acid: 0.182 mmol/L
[2]; [52]
  Molar concentration of Bupivacaine: 0.328 mmol/L
  Molar concentration of Pamoic acid: 0.186 mmol/L
[2]; [53]
  Molar concentration of Bupivacaine: 0.336 mmol/L
  Molar concentration of Pamoic acid: 0.186 mmol/L
[2]; [54]
  Molar concentration of Bupivacaine: 0.336 mmol/L
  Molar concentration of Pamoic acid: 0.184 mmol/L
